Laboratory results taken from patent US9855244B2, “O/W-emulsion-type topical pharmaceutical compositions containing a retinoid” (GALDERMA RESEARCH & DEVELOPMENT, priority 2012, dated 2018).

Tests used:
[1] = Pre-formulation studies: solubility of Compound A; type: physicochemical; details: in the solvents customarily used in the fatty phases of topical emulsions
Procedure: (§1) In order to produce an oil-in-water (O/W) emulsion according to the invention, pre-formulation studies were carried out in order to reveal the excipients enabling good solubilization and also good stability of the active agent.

[2] = Stability of Compound A in mixtures of excipients (solvent/surfactants), determined by HPLC; type: physicochemical; details: limits 95%-105% relative to T0
Excerpt: (§2) The limits set for good stability are 95%-105% as relative percentage with respect to T0.

[3] = Stability of Compound A in its principal oily solvents (determined by HPLC); type: physicochemical; details: limits 95%-105% relative to T0
Procedure: as §1
Stability of Compound A in its Principal Oily Solvents (Determined by HPLC)
as §2

[4] = "Single time" cutaneous penetration study, Franz cell, 16 h; type: in vitro ADME; details: 16 h application, ex vivo human skin, FIG. 1; stratum corneum, epidermis, dermis, receiving liquid
Excerpt: The in vitro tests are developed on glass diffusion cells (termed “Franz cells”) or Teflon diffusion cells, in static or dynamic modes. The cells consist of two compartments, a donor compartment and a receiver compartment, separated by a membrane, the orientation of which may be vertical or horizontal.
The membranes have a surface area generally of between 1 and 4 cm^2; they can be synthetic (cellulose, polydimethylsiloxane, etc.), but animal or human skin biopsies are preferable.
Samples of receiver liquid can be taken, at regular times over the course of 24 hours, in order to enable the establishment of the kinetics of diffusion through the skin when this proves necessary. At the end of a maximum of 24 h of application, in the case of the pharmaceutical and cosmetic products, the Franz cells are dismantled, and the substance studied is quantified in the following compartments: formulation remains, stratum corneum, epidermidis, dermis, and receiver liquid. The mass balance can in this case be established, which makes it possible to quantify the “absorbed” doses (present in the receiver liquid), the doses “having penetrated” (present in the viable epidermidis and the dermis) and the “nonabsorbed” doses (present in the formulation remains and the stratum corneum).
Two types of cutaneous penetration studies on human skin ex vivo were therefore carried out. […]

Solubility [1]: low solubility | Stability results ([2]; Compound A 0.05% in Arlacel 165/Lauroglycol FCC): Unstable | Stability results ([2]; Compound A 0.05% in Cremophor EL/Labrafil M1944CS): Unstable | Stability results ([2]; Compound A 0.05% in Cremophor EL/Lauroglycol FCC): Unstable | Stability results ([2]; Compound A 0.05% in GlucateSS-Glucamate SSE-20/Arlamol E): Unstable | Stability results ([2]; Compound A 0.05% in Tween 80/Arlamol E): Unstable | Stability results ([2]; Compound A 0.2% in Cremophor EL/Labrafil M1944CS): Unstable | Stability results ([2]; Compound A 0.2% in Tween 80/Hexylene glycol): Unstable | Stability results ([2]; Compound A 0.2% in Tween 80/Lauroglycol FCC): Unstable | Stability results ([3]; Compound A 0.005% in Miglyol 812N (Caprylic/capric triglycerides), 40° C.): Stable/Ok 6 Months | Stability results ([3]; Compound A 0.005% in Sweet almond oil, 40° C.): Stable/Ok 6 Months | Stability results ([3]; Compound A 0.05% in Arlacel 83V Pharma (Sorbitan Sesquioleate), 40° C.): Stable/Ok 6 Months | Stability results ([3]; Compound A 0.05% in Arlamol E (PPG-15 stearyl ether), 40° C.): Stable/Ok 6 Months | Stability results ([3]; Compound A 0.05% in Arlasolve DMI (Dimethyl Isosorbide)): Unstable | Stability results ([3]; Compound A 0.05% in Benzyl alcohol): Unstable | Stability results ([3]; Compound A 0.05% in Brij 30 (Laureth-4)): Unstable | Stability results ([3]; Compound A 0.05% in Capryol 90 (Propylene glycol monocaprylate), 40° C.): Stable/Ok 6 Months | Stability results ([3]; Compound A 0.05% in Dipropylene Glycol Care (Dipropylene glycol)): Unstable | Stability results ([3]; Compound A 0.05% in Eutanol G (Octyldodecanol)): Unstable | Stability results ([3]; Compound A 0.05% in Labrafil M1944CS (Apricot Kernel Oil PEG-6 Ester), 40° C.): Stable/Ok 6 Months | Stability results ([3]; Compound A 0.05% in Lauroglycol FCC (Propylene glycol laurate), 40° C.): Stable/Ok 6 Months | Stability results ([3]; Compound A 0.05% in Myritol PC (Propylene glycol dicaprylate/dicaprate)): Unstable | Stability results ([3]; Compound A 0.05% in Phenoxetol (Phenoxyethanol), 40° C.): Stable/Ok 6 Months
Structure (SMILES): CC(C)(C)c1cc(-c2cc(-c3ccc(C(=O)O)cc3)ccc2OCCO)ccc1N1CCCC1 [Compound A, 3″-Tert-butyl-4′-(2-hydroxyethoxy)-4″-pyrrolidin-1-yl[1,1′;3′,1″]terphenyl-4-carboxylic acid]
Distribution profile of compound A in the various skin compartments [4]: preferential localization and an accumulation of compound A in the stratum corneum and, less preferentially, in the epidermis
